According to the supplement of paper PMC11127212:

Experiments:
[1] = retention time on BEH HILIC column (20 min gradient, 0.4 mL/min); higher = later elution; conditions: LC: HILIC
Method: (§1)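 Reference standards (20-100 uM) were separated by HILIC UPLC (BEH HILIC, 45 °C): acidic pH 3.0 ammonium formate/formic acid for ESI+ and basic pH 9.0 ammonium acetate/ammonia for ESI-. They were analysed on a Synapt G2-Si traveling-wave IMS-QTOF with nitrogen drift gas (WH 30 V; WV 800 m/s in ESI+ and 1000 m/s in ESI-).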

[2] = collision cross section (TWIMS, N2) of ion [M+Na-2H]-; higher = larger gas-phase ion cross section; conditions: ionization: ESI negative; LC: HILIC, pH 9.0 ammonium acetate
Method: as §1, with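 “ESI-). CCS (TWCCSN2, Å2) was calibrated with Major Mix IMS/TOF and LockCCS leucine enkephalin; inter-day RSD was <1%.” for “ESI-).”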

[3] = collision cross section (TWIMS, N2) of ion [M+Na]+; higher = larger gas-phase ion cross section; conditions: ionization: ESI positive; LC: HILIC, pH 3.0 ammonium formate
In short: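 Ions from the standards were generated by positive electrospray and analyzed on a Synapt G2-Si traveling-wave ion mobility QTOF in nitrogen (wave velocity 800 m/s, wave height 30 V), following separation on a BEH HILIC column. Calibration of the nitrogen collision cross section used Major Mix IMS/TOF solution, with real-time correction against leucine enkephalin.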

[4] = collision cross section (TWIMS, N2) of ion [M-H]-; higher = larger gas-phase ion cross section; conditions: ionization: ESI negative; LC: HILIC, pH 9.0 ammonium acetate
Method: as §1

[5] = collision cross section (TWIMS, N2) of ion [M+H]+; higher = larger gas-phase ion cross section; conditions: ionization: ESI positive; LC: HILIC, pH 3.0 ammonium formate
Method: as §1

[6] = collision cross section (TWIMS, N2) of ion [M+H-H2O]+; higher = larger gas-phase ion cross section; conditions: ionization: ESI positive; LC: HILIC, pH 3.0 ammonium formate
Method: as §1, with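 “ESI-). CCS (TWCCSN2, Å2) was calibrated with Major Mix IMS/TOF and LockCCS leucine enkephalin; inter-day RSD was <1%.” for “ESI-).”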

[7] = collision cross section (TWIMS, N2) of ion [M]+; higher = larger gas-phase ion cross section; conditions: ionization: ESI positive; LC: HILIC, pH 3.0 ammonium formate
Method: as §1, with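 “ESI-). CCS (TWCCSN2, Å2) was calibrated with Major Mix IMS/TOF and LockCCS leucine enkephalin; inter-day RSD was <1%.” for “ESI-).”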

[8] = ionization: ESI negative, pH 9.0 ammonium acetate
[9] = ionization: ESI positive, pH 3.0 ammonium formate

Row | retention time on BEH HILIC column [1, 8] [min] | collision cross section [2] [Å²] | retention time on BEH HILIC column [1, 9] [min] | collision cross section [3] [Å²] | collision cross section [4] [Å²] | collision cross section [5] [Å²] | collision cross section [6] [Å²] | collision cross section [7] [Å²] | SMILES
1 | 1.75 | 131.48 | 1.45 | 132.11 |  |  |  |  | C/C(=C\C(=O)O)CC(=O)O [3-methylglutaconic acid]
2 |  |  | 5.74 | 149.75 |  | 146.07 | 140.8 |  | Nc1ccccc1C(=O)C[C@H](N)C(=O)O [L-kynurenine]
3 | 0.93 | 135.93 | 1.05 | 136.22 | 131.84 |  |  |  | C[C@@H](CCC(=O)O)CC(=O)O [3-methyladipic acid]
4 | 1.03 |  | 0.79 |  | 173.54 | 175.21 | 161.08 |  | CCCCCC/C=C\CCCCCCCC(=O)O [Palmitoleic acid]
5 | 2.08 |  | 1.96 | 150.01 | 146.44 | 145.63 | 144.55 |  | CC(C)(CO)[C@@H](O)C(=O)NCCC(=O)O [Pantothenic acid]
6 | 2.16 |  | 2.11 |  | 146.28 | 142.08 | 138.2 |  | O=C(O)CNC(=O)Cc1ccccc1 [Phenylacetylglycine]

The remaining lines, values behind:

Row | SMILES | retention time on BEH HILIC column [1, 8] [min] | collision cross section [2] [Å²] | retention time on BEH HILIC column [1, 9] [min] | collision cross section [3] [Å²] | collision cross section [4] [Å²] | collision cross section [5] [Å²] | collision cross section [6] [Å²] | collision cross section [7] [Å²]
7 | O=C(O)c1ccc(C(=O)O)o1 [2,5-furandicarboxylic acid] | 7.28 | 129.41 |  |  |  |  |  | 
8 | CCCCCCCC/C=C\CCCCCCCC(=O)O [Oleic acid] | 0.75 | 184.54 | 0.73 | 181.57 | 179.19 |  |  | 
9 | O=C(O)Cc1cccc(O)c1 [3-hydroxyphenylacetic acid] | 0.99 | 132.19 | 0.99 | 139.98 |  |  |  | 
10 | O=c1cc[nH]c(=O)[nH]1 [Uracil] | 1.08 |  | 1.08 |  | 115.77 | 120.27 | 120.58 | 
11 | O=C(O)[C@@H]1C[C@@H](O)CN1 [Hydroxyproline] | 7.55 |  | 7.47 |  | 126.62 | 125.85 | 123.91 | 
12 | Cc1c[nH]c(=O)[nH]c1=O [Thymine] | 1.03 |  | 1.05 |  | 120.89 | 120.81 | 122.06 | 
13 | Cc1ncc(C[n+]2csc(CCO)c2C)c(N)n1 [Thiamine] | 8.94 |  | 8.96 |  | 164.85 |  |  | 162.11
